Broadly, the melting point is the temperature of the solid-liquid transition. With `Cc1ccnc2c1C(=NNC(=N)N)CC(c1cc(Cl)ccc1Cl)C2.Cl` (stereo not drawn), the melting point was at least 300 °C.

With `Cc1ccc(C2Cc3occc3/C(=N/NC(=N)N)C2C)s1.Cl` (stereo not drawn), the melting point is 287 °C (dec.). `Cc1ccnc2c1C(=NNC(=N)NO)CC(c1cc(Cl)sc1Cl)C2.Cl` (stereo not drawn): the melting point was 196 to 197 °C (dec.). The value for `Cc1ccnc2c1C(=NNC(=N)N)CC(c1cc(Cl)sc1Cl)C2` (racemic) [Compound 108, (±)-7-(2,5-dichlorothiophen-3-yl)-5-guanidinoimino-4-methyl-5,6,7,8-tetrahydroquinoline] was 250 to 251 °C. Molecule `Cc1coc2c1/C(=N/NC(=N)N)CC(c1ccco1)C2.Cl` (stereo not drawn) showed a melting point of at least 300 °C. The value for `Cc1ccc(C2CC(=NNC(=N)N)c3c(C)coc3C2)cc1.Cl` (stereo not drawn) was 260 °C (dec.); that for `Cc1c[n+]([O-])nc2c1C(=NNC(=N)N)CC(c1ccccc1Cl)C2.Cl` (stereo not drawn) was 249 to 250 °C.

`Cc1ccc(S(=O)(=O)n2ccc3c2CC(c2ccccc2)CC3=NNC(=N)N)cc1.Cl` (stereo not drawn) came in with a melting point of 252 to 256 °C. In the case of `Cc1cnnc2c1C(=NNC(=N)N)CC(c1ccsc1)C2.Cl` (stereo not drawn), the melting point was 278 to 280 °C (dec.).

Regarding `Cc1coc2c1C(=NNC(=N)N)CC(c1ccc(F)cc1F)C2.Cl` (stereo not drawn), the melting point is 278 °C (dec.). Under `Cc1ccnc2c1C(=NNC(=N)NO)CC(c1c(Cl)cccc1Cl)C2.Cl` (stereo not drawn) stands 193 to 195 °C (dec.). As to `Cc1ccccc1C1CC(=NNC(=N)N)c2c(C)ccnc2C1.Cl` (stereo not drawn), the melting point was 218 °C (dec.). The value for `Cc1n[nH]c2c1C(=NNC(=N)N)CC(c1cc(Cl)ccc1Cl)C2.Cl` (stereo not drawn) was 287 °C (dec.).

Regarding `Cc1ccc(Cl)cc1C1CC(=NNC(=N)N)c2c(C)ccnc2C1.Cl` (stereo not drawn), the melting point was 215 to 220 °C. The value for `CS(=O)(=O)O.Cc1ccnc2c1C(=NNC(=N)N)CC(c1cc(Cl)ccc1Cl)C2` (stereo not drawn) was 248 °C (dec.); that for `Cc1c2c(nn1CCCc1ccccc1)CC(c1ccccc1Cl)CC2=NNC(=N)N.Cl` (stereo not drawn) was 170 to 180 °C; that for `Cc1cn[n+]([O-])c2c1C(=NNC(=N)N)CC(c1ccccc1Cl)C2.Cl` (stereo not drawn) was 283 to 284 °C.

With `CS(=O)(=O)O.Cc1ccnc2c1C(=NNC(=N)N)CC(c1cc(Cl)sc1Cl)C2` (stereo not drawn) [Compound 111], the melting point lay in the range of 225 to 229 °C. In turn, `Cc1nn(CCc2ccccc2)c2c1C(=NNC(=N)N)CC(c1ccccc1Cl)C2.Cl` (stereo not drawn) registered a melting point of 152 to 154 °C. The value for `Cc1ccccc1C1CC(=NNC(=N)N)c2c(C(F)(F)F)coc2C1.Cl` (stereo not drawn) was 247 °C (dec.). Turning to `Cc1c[nH]c2c1C(=NNC(=N)N)CC(c1ccccc1)C2.Cl` (stereo not drawn), the melting point was 176 °C (dec.). Under `Cc1ccnc2c1C(=NNC(=N)NO)CC(c1cccc(Cl)c1Cl)C2.Cl` (stereo not drawn) stands 196 to 198 °C (dec.). The value for `Cc1cc(C)c2c(n1)CC(c1ccccc1)CC2=NNC(=N)N.Cl` (stereo not drawn) was 270 °C (dec.). The value for `Cc1ccnc2c1C(=NNC(=N)N)CC(c1cc(Cl)sc1Cl)C2.O=[N+]([O-])O` (stereo not drawn) was 167 °C (dec.); that for `Cl.N=C(N)NN=C1CC(c2ccccc2)Cc2[nH]ccc21` (stereo not drawn) was 192 to 194 °C; that for `Cc1ccccc1C1CC(=NNC(=N)N)c2c(C)cn(S(C)(=O)=O)c2C1.Cl` (stereo not drawn) was 228 to 230 °C.

Take `Cl.N=C(N)NN=C1CC(c2ccccc2)Cc2c1ccn2Cc1ccccc1` (stereo not drawn): the melting point was 142 °C (dec.). Regarding `Cc1cn(S(C)(=O)=O)c2c1C(=NNC(=N)N)CC(c1cccs1)C2.Cl` (stereo not drawn), the melting point was 297 °C (dec.). The value for `Cl.N=C(N)N/N=C1\CC(c2ccc(F)cc2)Cc2occ(C(F)(F)F)c21` (stereo not drawn) was 283 °C (dec.); that for `Cc1ccc(C)c(C2C/C(=N\NC(=N)N)c3c(C)coc3C2)c1.Cl` (stereo not drawn) was 235 to 236 °C.

The molecule `Cc1ccnc2c1C(=NNC(=N)N)CC(c1sc(Cl)cc1Cl)C2.Cl` (stereo not drawn) displayed a melting point of 184 to 187 °C.

In the case of `CS(=O)(=O)n1ccc2c1CC(c1ccccc1)CC2=NNC(=N)N.Cl` (stereo not drawn), the melting point was 270 °C (dec.). `Cl.N=C(N)NN=C1CC(c2ccccc2Cl)Cc2[nH]nc(Nc3ccccc3)c21` (stereo not drawn) returned a melting point of 208 to 210 °C. In turn, `Cc1ccnc2c1C(=NNC(=N)N)CC(c1cc(Br)sc1Br)C2.Cl` (stereo not drawn) registered a melting point of 272 to 273 °C.

Regarding `Cc1coc2c1/C(=N/NC(=N)N)CC(c1ccccc1F)C2.Cl` (stereo not drawn), the melting point is 288 °C (dec.). The molecule `Cc1ccc(F)c(C2CC(=NNC(=N)N)c3c(C)ccnc3C2)c1.Cl` (stereo not drawn) registered a melting point of 230 to 235 °C. As to `Cl.N=C(N)NN=C1CC(c2ccccc2)Cc2c1ccn2C(=O)c1ccccc1` (stereo not drawn), the melting point is 168 °C (dec.). Under `Cc1cc(C)c2c(n1)CC(c1ccccc1Cl)CC2=NNC(=N)N.Cl` (stereo not drawn) stands 227 °C (dec.). The value for `Cc1cc(Cl)sc1C1CC(=NNC(=N)N)c2c(C)ccnc2C1.Cl` (stereo not drawn) was 193 to 196 °C. Turning to `CNC(=N)NN=C1CC(c2ccccc2Cl)Cc2[nH]nc(C)c21.Cl` (stereo not drawn), the melting point was 240 °C (dec.). Take `COc1ccc(C2CC(=NNC(=N)N)c3c(C)coc3C2)cc1.Cl` (stereo not drawn): the melting point was 182 °C (dec.). Under `Cc1nc(C)c2c(n1)CC(c1ccccc1Cl)C/C2=N\NC(=N)N.Cl` (stereo not drawn) stands 242 to 244 °C. Turning to `COc1ccccc1C1C/C(=N\NC(=N)N)c2c(C)coc2C1.Cl` (stereo not drawn), the melting point is 279 °C (dec.). Take `Cc1cnnc2c1C(=NNC(=N)NO)CC(c1ccccc1Cl)C2.Cl` (stereo not drawn): the melting point was 210 °C (dec.). Take `Cc1coc2c1/C(=N/NC(=N)N)CC(c1cccc(Cl)c1Cl)C2.Cl` (stereo not drawn): the melting point is 286 °C (dec.). The value for `COc1ccccc1C1CC(=NNC(=N)N)c2c(C)ccnc2C1.Cl` (stereo not drawn) was 192 °C (dec.). In the case of `Cc1cn(C)c2c1C(=NNC(=N)N)CC(c1ccccc1)C2.Cl` (stereo not drawn), the melting point was 230 °C (dec.). Turning to `Cc1coc2c1/C(=N/NC(=N)N)CC(c1ccccc1Br)C2.Cl` (stereo not drawn), the melting point is 296 °C (dec.). The value for `Cc1ccnc2c1C(=NNC(=N)N)CC(c1c(Cl)cccc1Cl)C2.Cl` (stereo not drawn) was at least 300 °C; that for `Cc1ccnc2c1C(=NNC(=N)N)CC(c1nccs1)C2.Cl` (stereo not drawn) was 282 °C (dec.); that for `Cc1ccc(C)c(C2CC(=NNC(=N)NO)c3c(C)ccnc3C2)c1.Cl` (stereo not drawn) was 190 to 192 °C (dec.). The value for `Cc1ccc(Cl)c(C2CC(=NNC(=N)N)c3c(C)ccnc3C2)c1.Cl` (stereo not drawn) was 240 to 243 °C. As to `Cc1coc2c1/C(=N/NC(=N)N)CC(c1ccc(F)cc1)C2.Cl` (stereo not drawn), the melting point was 277 °C (dec.). Take `Cc1ccc(C2CC(=NNC(=N)NO)c3c(C)ccnc3C2)s1.Cl` (stereo not drawn): the melting point is 210 to 212 °C (dec.). The value for `Cc1ccnc2c1C(=NNC(=N)NO)CC(c1ccsc1Br)C2.Cl` (stereo not drawn) was 197 to 198 °C. Under `Cc1ccc2c(n1)CC(c1ccccc1C)CC2=NNC(=N)N.Cl` (stereo not drawn) stands 206 °C (dec.); under `Cc1ccnc2c1C(=NNC(=N)NO)CC(c1cc(Br)sc1Br)C2.Cl` (stereo not drawn), 194 to 196 °C (dec.). With `Cl.N=C(N)N/N=C1\CC(c2ccco2)Cc2occ(C(F)(F)F)c21` (stereo not drawn), the melting point was 282 °C (dec.). Take `Cc1cc(C)c2c(n1)CC(c1ccccn1)CC2=NNC(=N)N.Cl` (stereo not drawn): the melting point is 201 °C (dec.). The value for `COCc1n[nH]c2c1C(=NNC(=N)N)CC(c1ccccc1Cl)C2.Cl` (stereo not drawn) was 210 to 212 °C; that for `Cc1nn(Cc2ccccc2)c2c1C(=NNC(=N)N)CC(c1ccccc1Cl)C2.Cl` (stereo not drawn) was 151 to 153 °C. For `Cc1ccccc1C1CC(=NNC(=N)N)c2c(C)coc2C1.Cl` (stereo not drawn), the melting point was 266 °C (dec.). On to `Cc1ccnc2c1C(=NNC(=N)N)CC(c1ccsc1Cl)C2.Cl` (stereo not drawn), for which the melting point was 281 to 283 °C (dec.).

In the case of `Cl.N=C(N)NN=C1CC(c2ccccc2)Cc2[nH]c(=O)ccc21` (stereo not drawn), the melting point is at least 300 °C. The molecule `Cc1ccnc2c1C(=NNC(=N)N)CC(c1cc(Cl)sc1Cl)C2` (single isomer, unassigned; (-)) [Compound 112, (−)-7-(2,5-dichlorothiophen-3-yl)-5-guanidinoimino-4-methyl-5,6,7,8-tetrahydroquinoline] yielded a melting point of 129 to 133 °C. Under `Cc1ccnc2c1C(=NNC(=N)N)CC(c1ccccn1)C2.Cl` (stereo not drawn) stands 260 °C (dec.); under `Cc1ccc(F)cc1C1CC(=NNC(=N)N)c2c(C)cnnc2C1.Cl` (stereo not drawn), 240 °C (dec.); under `Cc1cc(=O)n(C)c2c1C(=NNC(=N)N)CC(c1ccsc1)C2.Cl` (stereo not drawn), 156 to 157 °C. The value for `Cc1ccc(C2CC(=NNC(=N)N)c3c(C)ccnc3C2)s1.Cl` (stereo not drawn) was 271 to 273 °C; that for `Cc1nn(CCCc2ccccc2)c2c1C(=NNC(=N)N)CC(c1ccccc1Cl)C2.Cl` (stereo not drawn) was 210 °C (dec.); that for `COc1ccc(F)cc1C1CC(=NNC(=N)N)c2c(C)ccnc2C1.Cl` (stereo not drawn) was at least 300 °C.

In turn, `Cc1cc(Cl)c(C2CC(=NNC(=N)N)c3c(C)ccnc3C2)s1.Cl` (stereo not drawn) had a melting point of 198 to 200 °C. With `N=C(N)NN=C1CC(c2cc(Cl)sc2Cl)Cc2nncc(C(F)(F)F)c21` (stereo not drawn) [Compound 135, 7-(2,5-dichlorothiophen-3-yl)-5-guanidinoimino-4-trifluoromethyl-5,6,7,8-tetrahydrocinnoline], the melting point was 265 to 266 °C (dec.). Under `CS(=O)(=O)O.Cc1ccnc2c1C(=NNC(=N)N)CC(c1cc(Cl)sc1Cl)C2.O` (stereo not drawn) (hydrate or solvate) stands 239 to 241 °C; under `Cc1ccnc2c1C(=NNC(=N)N)CC(c1ccc(F)cc1)C2.Cl` (stereo not drawn), 259 °C (dec.); under `Cl.N=C(N)N/N=C1\CC(c2ccccc2Br)Cc2occ(C(F)(F)F)c21` (stereo not drawn), 289 °C (dec.). As for `Cc1coc2c1C(=NNC(=N)N)CC(c1ccc(Br)cc1)C2.Cl` (stereo not drawn), the melting point is 235 °C (dec.).

On to `COc1ccccc1C1CC(=NNC(=N)N)c2c(C)n[nH]c2C1.Cl` (stereo not drawn), for which the melting point was 202 °C (dec.).

`Cc1ccnc2c1C(=NNC(=N)N)CC(c1ccncc1)C2.Cl` (stereo not drawn): the melting point was 267 °C (dec.). Under `CCOC(=O)c1coc2c1/C(=N/NC(=N)N)CC(c1ccccc1Cl)C2.Cl` (stereo not drawn) stands 277 °C (dec.). For `Cc1ccnc2c1C(=NNC(=N)N)CC(c1cc(Cl)sc1Cl)C2.O=S(=O)(O)O` (stereo not drawn), the melting point is 239 to 242 °C.

These data come from patent US6350749B1, “Aminoguanidine hydrazone derivatives, process for producing the same and drugs thereof” (Takeda Chemical Industries, Ltd., priority 1998, dated 2002).
